Calls of active or inactive are those of the source. The rule behind the calls is not given here.
Each molecule was assayed against Sphingosine 1-phosphate receptor 4 (Homo sapiens) (UniProt O95977) (assay: agonism at human S1PR4 – cell-based, FRET, dose response, counter-screen for S1PR3 antagonist project, late-stage follow-up (AID 743430)). Conditions: S1P4-expressing cells, FRET reporter, agonist mode.
Sequence of Sphingosine 1-phosphate receptor 4 (Homo sapiens) (O95977 whole entry, looked up): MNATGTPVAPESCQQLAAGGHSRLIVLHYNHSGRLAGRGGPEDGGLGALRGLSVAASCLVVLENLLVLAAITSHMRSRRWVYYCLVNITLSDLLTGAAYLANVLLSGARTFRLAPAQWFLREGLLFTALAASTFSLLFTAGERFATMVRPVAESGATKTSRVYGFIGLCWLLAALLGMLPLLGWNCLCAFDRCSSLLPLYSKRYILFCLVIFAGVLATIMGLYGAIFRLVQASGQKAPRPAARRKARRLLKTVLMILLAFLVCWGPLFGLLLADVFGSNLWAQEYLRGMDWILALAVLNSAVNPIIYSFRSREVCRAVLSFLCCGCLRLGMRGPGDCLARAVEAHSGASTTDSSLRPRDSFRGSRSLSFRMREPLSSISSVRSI

Question: `COc1ccc(C(=O)NC(c2ccccc2)c2nc(-c3ccccc3)no2)cc1` (configuration not stated) was tested. Which EC50 did it give?
Answer: > 50 µM (inactive)

Question: For `O=C(NC(c1ccc(Cl)cc1)c1nc(-c2ccccn2)no1)c1cccc(Cl)c1` (configuration not stated), which EC50 is on record?
Answer: > 50 µM (inactive)

Question: How did the EC50 turn out when `O=C(NC(c1ccccc1)c1nc(-c2ccccc2)no1)c1cccc(Br)c1` (configuration not stated) was run?
Answer: inactive

Question: With `Cc1ccc(C(=O)NC(c2ccccc2)c2nc(-c3ccccc3)no2)cc1` (configuration not stated) as the molecule, how does the EC50 read?
Answer: > 50 µM (inactive)

Question: Which EC50 does the source give for `O=C(NC(c1cccc(Cl)c1)c1nc(-c2ccccc2)no1)c1cc(Cl)cc(Cl)c1` (configuration not stated) here?
Answer: > 50 µM (inactive)

Question: For `N#Cc1ccc(C(=O)NC(c2ccc(Cl)c(Cl)c2)c2nc(-c3ccccc3)no2)cc1` (configuration not stated), which EC50 is on record?
Answer: > 50 µM (inactive)

Question: With `O=C(NC(c1nc(-c2ccccc2)no1)C1CCOCC1)c1ccc(Cl)c(Cl)c1` (configuration not stated) as the molecule, how does the EC50 read?
Answer: > 50 µM (inactive)

Question: Which EC50 does the source give for `CCc1ccc(C(NC(=O)c2cccc(Cl)c2)c2nc(-c3ccccc3)no2)cc1` (configuration not stated) here?
Answer: > 50 µM (inactive)

Question: With `O=C(c1cccc(Cl)c1)N(CCO)C(c1ccc(Cl)c(Cl)c1)c1nc(-c2ccccc2)no1` (configuration not stated) as the molecule, how does the EC50 read?
Answer: > 50 µM (inactive)

Question: How did the EC50 turn out when `Cc1ccc(C(NC(=O)c2cccc(Cl)c2)c2nc(-c3ccccc3)no2)cc1` (configuration not stated) was run?
Answer: > 50 µM (inactive)

Question: With `O=C(NC(c1ccc(Cl)c(Cl)c1)c1nc(-c2ccccc2)no1)c1ccc(Cl)cc1` (configuration not stated) as the molecule, how does the EC50 read?
Answer: > 50 µM (inactive)

Question: For `O=C(NC(c1cccc(Cl)c1)c1nc(-c2ccccc2)no1)c1ccc(Cl)c(Cl)c1` (configuration not stated), which EC50 is on record?
Answer: > 50 µM (inactive)

Question: How did the EC50 turn out when `O=C(NC(c1nc(-c2ccccc2)no1)C1CCCCC1)c1ccc(Cl)c(Cl)c1` (configuration not stated) was run?
Answer: > 50 µM (inactive)

Question: How did the EC50 turn out when `O=C(NC(c1ccccc1)c1nc(-c2ccccc2)no1)c1cccc(Cl)n1` (configuration not stated) was run?
Answer: > 50 µM (inactive)

Question: How did the EC50 turn out when `O=C(NC(c1ccccc1)c1nc(-c2ccccc2)no1)c1cccc(Cl)c1` (configuration not stated) was run?
Answer: > 50 µM (inactive)

Question: For `O=C(NC(c1ccc(Cl)c(Cl)c1)c1nc(-c2ccccc2)no1)c1cccc(Cl)c1` (configuration not stated), which EC50 is on record?
Answer: > 50 µM (inactive)

Question: For `O=C(NC(c1ccc(Cl)cc1)c1nc(-c2ccccc2)no1)c1cccc(Cl)c1` (configuration not stated), which EC50 is on record?
Answer: > 50 µM (inactive)

Question: For `O=C(NC(c1ccc(Cl)cc1)c1nc(-c2ccccc2)no1)c1cccc(Br)c1` (configuration not stated), which EC50 is on record?
Answer: > 50 µM (inactive)

Question: For `O=C(NC(c1ccc(Cl)c(Cl)c1)c1nc(-c2ccccc2)no1)c1ccccc1` (configuration not stated), which EC50 is on record?
Answer: > 50 µM (inactive)

Question: For `O=C(NC(c1cccc(Cl)c1)c1nc(-c2ccccc2)no1)c1cccc(Cl)c1` (configuration not stated), which EC50 is on record?
Answer: > 50 µM (inactive)

Question: Which EC50 does the source give for `O=C(NC(c1ccc(Cl)c(Cl)c1)c1nc(-c2ccccc2)no1)c1ccc(Cl)c(Cl)c1` (configuration not stated) here?
Answer: > 50 µM (inactive)

Question: How did the EC50 turn out when `O=C(NC(c1ccc(Br)cc1)c1nc(-c2ccccc2)no1)c1ccc(Cl)c(Cl)c1` (configuration not stated) was run?
Answer: > 50 µM (inactive)

Question: With `O=C(NC(c1ccc(Cl)cc1)c1nc(-c2ccccc2)no1)c1ccc(Cl)c(Cl)c1` (configuration not stated) as the molecule, how does the EC50 read?
Answer: > 50 µM (inactive)

Question: Which EC50 does the source give for `O=C(NC(Cc1ccccc1)c1nc(-c2ccccc2)no1)c1cccc(Cl)c1` (configuration not stated) here?
Answer: > 50 µM (inactive)

Question: Which EC50 does the source give for `O=C(NC(c1ccc(Cl)cc1)c1nc(-c2ccccc2)no1)c1ccc(Cl)c(Br)c1` (configuration not stated) here?
Answer: > 50 µM (inactive)

Question: `O=C(NC(c1ccccc1)c1nc(-c2ccccc2)no1)c1ccc(Cl)cc1` (configuration not stated) was tested. Which EC50 did it give?
Answer: > 50 µM (inactive)

Question: Which EC50 does the source give for `O=C(NC(c1ccc(Cl)cc1)c1nc(-c2cccc(Cl)c2)no1)c1cccc(Cl)c1` (configuration not stated) here?
Answer: > 50 µM (inactive)
